The source made the active and inactive calls. Some results are limits rather than exact numbers.

Assay [1] has as its target T1, Mitochondrial peptide methionine sulfoxide reductase (Bos taurus, UniProt P54149).
T1 sequence (P54149 whole entry): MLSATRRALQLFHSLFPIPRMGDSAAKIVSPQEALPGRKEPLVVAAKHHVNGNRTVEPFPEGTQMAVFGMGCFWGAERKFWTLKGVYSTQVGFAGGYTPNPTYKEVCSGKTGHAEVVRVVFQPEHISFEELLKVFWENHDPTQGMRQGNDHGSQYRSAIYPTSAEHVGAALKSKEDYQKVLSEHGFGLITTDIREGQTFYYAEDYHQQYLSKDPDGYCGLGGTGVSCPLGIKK
In words: Absorbance-based biochemical high throughput dose response assay for activators of Methionine sulfoxide reductase A (MsrA). The class given is functional.

In assay [2] the target is T2, Heat shock factor protein 1 (Mus musculus, UniProt P38532).
T2 sequence (P38532 whole entry): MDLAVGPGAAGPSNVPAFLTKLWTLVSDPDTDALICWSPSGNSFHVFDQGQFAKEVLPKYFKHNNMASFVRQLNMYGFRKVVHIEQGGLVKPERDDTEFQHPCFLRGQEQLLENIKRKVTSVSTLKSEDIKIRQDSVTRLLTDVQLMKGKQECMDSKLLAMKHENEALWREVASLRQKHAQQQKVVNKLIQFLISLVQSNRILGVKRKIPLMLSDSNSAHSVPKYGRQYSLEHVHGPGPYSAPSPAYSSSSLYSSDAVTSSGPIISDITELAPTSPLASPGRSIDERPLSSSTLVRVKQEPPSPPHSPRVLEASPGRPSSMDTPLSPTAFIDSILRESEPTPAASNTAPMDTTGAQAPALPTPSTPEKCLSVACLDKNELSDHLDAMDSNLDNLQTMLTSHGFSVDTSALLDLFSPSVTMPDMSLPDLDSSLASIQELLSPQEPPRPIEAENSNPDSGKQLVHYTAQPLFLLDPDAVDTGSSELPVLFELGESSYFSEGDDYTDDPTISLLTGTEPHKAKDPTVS
In words: enhancement of HSF1-driven luciferase signal – cell-based, NIH3T3, luminescence, dose retest, confirmation (AID 435004).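 Further: stress induced by proteasome inhibitor MG132 added 30 min after compound; luciferase reporter driven by HSF1 response element in NIH3T3 cells; actives raise luminescence as potentiators of the MG132 stress response.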 It counts as functional.

For the next assay, the system named is Streptococcus. In words: GAS UMAA2166 growth inhibition – luminescence, BacTiterGlo, counter-screen for streptokinase expression inhibitor project, dose response (AID 1915).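 Further: potency for reduction of bacterial viability or growth.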 The class given is functional, organism-based.
The target in assay [3] is Heat shock protein HSP 90-alpha (Homo sapiens, UniProt P07900). It counts as functional, organism-based.
In assay [4] the target is 26S proteasome non-ATPase regulatory subunit 14 (Homo sapiens, UniProt O00487). In words: inhibition of proteasome subunit RPN11 – biochemical, fluorescence polarization, uHTS hits, confirmation (AID 602368). It counts as functional. Background: Fluorescence polarisation rises when a labelled molecule tumbles more slowly, as on binding a larger partner.
Chain of 26S proteasome non-ATPase regulatory subunit 14 (O00487 whole entry): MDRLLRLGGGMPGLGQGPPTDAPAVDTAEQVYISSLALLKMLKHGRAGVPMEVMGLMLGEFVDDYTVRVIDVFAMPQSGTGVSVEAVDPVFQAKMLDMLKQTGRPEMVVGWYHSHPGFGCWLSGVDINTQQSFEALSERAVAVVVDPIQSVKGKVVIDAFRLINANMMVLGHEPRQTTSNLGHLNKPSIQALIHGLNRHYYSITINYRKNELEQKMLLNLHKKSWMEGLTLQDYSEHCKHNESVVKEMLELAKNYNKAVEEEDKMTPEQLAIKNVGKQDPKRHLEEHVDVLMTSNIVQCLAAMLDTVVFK
The next assay concerns the target T3, Protein RecA (Mycobacterium tuberculosis, UniProt P9WHJ3).
T3 sequence (P9WHJ3 whole entry): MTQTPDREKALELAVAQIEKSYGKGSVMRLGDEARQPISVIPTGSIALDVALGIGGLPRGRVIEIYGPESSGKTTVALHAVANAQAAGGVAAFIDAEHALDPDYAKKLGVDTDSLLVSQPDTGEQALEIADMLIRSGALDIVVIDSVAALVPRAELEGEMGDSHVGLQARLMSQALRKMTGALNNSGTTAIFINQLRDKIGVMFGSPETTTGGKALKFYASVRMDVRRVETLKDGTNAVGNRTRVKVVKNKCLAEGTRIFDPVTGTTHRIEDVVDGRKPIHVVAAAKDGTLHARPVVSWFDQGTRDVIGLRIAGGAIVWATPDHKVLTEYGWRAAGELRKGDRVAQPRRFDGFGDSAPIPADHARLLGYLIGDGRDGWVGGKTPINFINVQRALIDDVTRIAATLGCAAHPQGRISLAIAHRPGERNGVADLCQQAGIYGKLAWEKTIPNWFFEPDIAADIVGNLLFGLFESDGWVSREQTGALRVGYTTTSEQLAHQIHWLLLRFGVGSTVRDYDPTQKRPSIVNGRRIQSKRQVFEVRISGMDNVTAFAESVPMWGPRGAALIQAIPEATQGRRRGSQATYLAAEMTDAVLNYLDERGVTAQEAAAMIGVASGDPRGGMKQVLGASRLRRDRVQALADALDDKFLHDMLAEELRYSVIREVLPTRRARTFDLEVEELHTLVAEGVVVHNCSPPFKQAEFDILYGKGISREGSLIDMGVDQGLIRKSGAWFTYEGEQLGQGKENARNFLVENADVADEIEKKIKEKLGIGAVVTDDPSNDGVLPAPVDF
In words: Fluorescence Cell-Free Homogeneous Dose Retest to Identify Inhibitors of RecA-Intein Splicing Activity. [Related pubchem assays (depositor defined):AID2097, AID2223, AID489010, AID492950]. The class given is functional.

Assay [5] concerns Streptococcus sp. 'group A'. In words: Streptococcus pyogenes SK(-)GAS viability under kanamycin – luminescence, BacTiterGlo, confirmation, counter-screen for streptokinase expression inhibitor project, dose response (AID 1900). It counts as functional, organism-based.
A further assay concerns the target Prothrombin (Bos taurus, UniProt P00735). In words: thrombin protease inhibitors – biochemical, fluorescence polarization, uHTS hits, dose response (AID 602369). It counts as functional.
For assay [6], the target named is 72 kDa type IV collagenase (Homo sapiens, UniProt P08253). In words: Dose Response validation of uHTS RPN11 inhibitor hits using a MMP-2 Fluorescence assay. It counts as functional.
Chain of 72 kDa type IV collagenase (P08253 whole entry): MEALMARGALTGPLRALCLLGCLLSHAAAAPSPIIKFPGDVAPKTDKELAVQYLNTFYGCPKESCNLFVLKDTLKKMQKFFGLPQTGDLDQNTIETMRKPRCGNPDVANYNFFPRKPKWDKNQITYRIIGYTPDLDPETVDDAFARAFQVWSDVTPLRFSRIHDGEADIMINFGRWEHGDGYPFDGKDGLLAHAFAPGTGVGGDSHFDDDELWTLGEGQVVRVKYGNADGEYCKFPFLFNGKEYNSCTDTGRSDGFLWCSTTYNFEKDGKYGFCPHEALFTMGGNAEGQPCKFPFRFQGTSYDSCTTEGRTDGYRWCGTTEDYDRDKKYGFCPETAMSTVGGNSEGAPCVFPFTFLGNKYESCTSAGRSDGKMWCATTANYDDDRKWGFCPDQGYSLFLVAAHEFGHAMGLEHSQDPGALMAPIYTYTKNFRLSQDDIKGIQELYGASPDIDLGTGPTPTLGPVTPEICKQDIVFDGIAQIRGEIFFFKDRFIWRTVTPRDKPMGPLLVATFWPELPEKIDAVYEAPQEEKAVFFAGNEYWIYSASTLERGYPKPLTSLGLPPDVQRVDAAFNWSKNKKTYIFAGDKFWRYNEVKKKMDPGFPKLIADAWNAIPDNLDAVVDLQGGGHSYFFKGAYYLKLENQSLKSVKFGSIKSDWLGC
In assay [7] the target is T4, Replicative DNA helicase DnaB (Mycobacterium tuberculosis, UniProt P9WMR3).
T4 sequence (P9WMR3 whole entry): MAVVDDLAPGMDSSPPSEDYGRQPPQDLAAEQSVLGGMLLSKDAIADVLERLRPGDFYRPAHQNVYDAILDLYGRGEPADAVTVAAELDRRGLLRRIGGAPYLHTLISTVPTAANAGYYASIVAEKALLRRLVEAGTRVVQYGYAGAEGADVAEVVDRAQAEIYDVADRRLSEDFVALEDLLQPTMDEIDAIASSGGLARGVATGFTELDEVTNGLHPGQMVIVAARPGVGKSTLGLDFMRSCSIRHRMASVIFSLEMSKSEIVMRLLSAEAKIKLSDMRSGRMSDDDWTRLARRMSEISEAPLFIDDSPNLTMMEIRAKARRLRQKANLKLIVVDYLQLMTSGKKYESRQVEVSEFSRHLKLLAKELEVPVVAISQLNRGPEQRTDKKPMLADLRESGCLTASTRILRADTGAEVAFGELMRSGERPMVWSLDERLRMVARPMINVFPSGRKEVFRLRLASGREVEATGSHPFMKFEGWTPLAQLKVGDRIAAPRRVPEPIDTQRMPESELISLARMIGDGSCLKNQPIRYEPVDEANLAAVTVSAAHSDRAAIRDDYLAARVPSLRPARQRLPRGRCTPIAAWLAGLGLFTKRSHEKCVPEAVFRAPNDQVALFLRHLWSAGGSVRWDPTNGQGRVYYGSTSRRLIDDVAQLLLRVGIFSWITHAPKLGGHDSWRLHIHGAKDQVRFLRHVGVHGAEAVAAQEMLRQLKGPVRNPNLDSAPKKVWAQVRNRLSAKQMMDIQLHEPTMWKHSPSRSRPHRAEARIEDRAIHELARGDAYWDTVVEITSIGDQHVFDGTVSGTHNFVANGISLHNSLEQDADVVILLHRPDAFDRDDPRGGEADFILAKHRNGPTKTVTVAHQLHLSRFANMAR
In words: DnaB intein splicing inhibitors, dose response, biochemical, cell-free fluorescence (AID 449749). It counts as functional.

Assay [8] in a line: HEK-293T cell viability reduction – luminescence, B-cell screen hits, cytotoxicity control for BCR NF-kB inhibitor project, dose response (AID 489021).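 Further: HEK-293T cells carrying an NF-kB luciferase reporter; cells exposed to compound for about 14 hours before viability readout.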 It counts as functional, cell-based.
Another assay deals with H9c2. In words: cells. It counts as functional, cell-based. Conditions: Rattus norvegicus, H9c2, Myocardium.
Assay [9] can be described thus: alpha-synuclein stem-loop luciferase translation blockers – H4 neuroglioma cells, luminescence, confirmation (AID 1988). It counts as functional, cell-based.
Assay [10] is described as follows: Luminescence Cell-Based Dose Response HTS to Identify Inhibitors of 5'UTR Stem-Loop Driven Prion Protein mRNA Translation in H4 Neuroglioblastoma Cells. [Related pubchem assays: 1827 (Project Summary), 1813 (Primary HTS)]. The class given is functional.
For assay [11], the target named is T5, Low molecular weight phosphotyrosine protein phosphatase (Homo sapiens, UniProt P24666).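 Further: Dose-response confirmation assay measuring inhibition of LMPTP enzyme activity by fluorescence intensity read-out.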
T5 sequence (P24666 whole entry): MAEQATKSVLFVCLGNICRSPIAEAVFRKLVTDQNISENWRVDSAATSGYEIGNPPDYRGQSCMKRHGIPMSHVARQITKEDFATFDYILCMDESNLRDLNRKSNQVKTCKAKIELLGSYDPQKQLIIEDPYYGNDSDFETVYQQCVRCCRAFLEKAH
The class given is functional. The settings on record: read-out: IC50_Mean.

Assay [12] is described as follows: luciferase reporter signal suppression in cells – H4 neuroglioma cells, luminescence, dose response (AID 1990). The class given is functional, cell-based. Background: A reporter such as luciferase makes a cellular process visible.
The nature of assay [13]: non-specific 3'UTR reporter inhibition in Clone20-Shn3RL – cell-based, Renilla luciferase, cherry-picked, counter-screen for Shn3 inhibitor project, dose response (AID 624133). It counts as functional.
For assay [14], the target named is Luciferin 4-monooxygenase (Photinus pyralis, UniProt P08659). In words: inhibition of purified Photinus pyralis luciferase – biochemical, luminescence, dose response (AID 1891).
Chain of Luciferin 4-monooxygenase (P08659 whole entry): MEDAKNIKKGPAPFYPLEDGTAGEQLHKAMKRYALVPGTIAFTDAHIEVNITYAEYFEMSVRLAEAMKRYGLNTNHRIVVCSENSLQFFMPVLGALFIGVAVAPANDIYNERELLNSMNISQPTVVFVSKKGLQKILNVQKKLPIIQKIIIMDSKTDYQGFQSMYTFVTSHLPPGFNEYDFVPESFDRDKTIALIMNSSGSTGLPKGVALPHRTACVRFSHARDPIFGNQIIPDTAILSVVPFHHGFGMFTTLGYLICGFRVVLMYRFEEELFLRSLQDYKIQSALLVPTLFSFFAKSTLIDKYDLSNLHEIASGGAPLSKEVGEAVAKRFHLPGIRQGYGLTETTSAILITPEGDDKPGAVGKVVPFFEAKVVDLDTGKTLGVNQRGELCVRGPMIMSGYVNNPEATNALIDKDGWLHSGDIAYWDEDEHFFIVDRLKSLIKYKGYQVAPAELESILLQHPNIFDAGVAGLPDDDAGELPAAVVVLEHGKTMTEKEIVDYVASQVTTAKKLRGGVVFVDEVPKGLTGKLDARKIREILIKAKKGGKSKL
The nature of assay [15]: Luminescence Cell-Based Dose Confirmation HTS to Identify Inhibitors of Platelet Dense Granule Release. [Related pubchem assays: 1663 (Primary HTS), 1678 (Summary of Project)]. It counts as functional.
The next assay concerns INS1. In words: INS-1E survival protection against cytokine death – cell-based, luminescence, retest, dose response (AID 449756).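 Further: cell death triggered by IL-1 beta plus TNF-alpha plus IFN-gamma mixture; protective hits raise ATP signal compared with cytokine alone wells.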 The settings on record: Rattus norvegicus. The class given is functional.
The nature of assay [16]: loss of viability in HepG2 cells – cell-based, CellTiter-Glo, cherry-picked, cytotoxicity control for Shn3 inhibitor project, dose response (AID 624134). It counts as functional. On the technique in general: In ATP-based viability assays light output follows the ATP content of the culture.
Assay [17] can be described thus: reduction of Shn3 3'UTR-driven luciferase in osteoblasts – cell-based, Clone20 osteoblasts, firefly luciferase, cherry-picked, dose response (AID 624132).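 Further: firefly luciferase luminescence from reporter carrying the Shn3 3'UTR in osteoblasts.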 It counts as functional.
The target in another assay is Protein Wnt-3a (Mus musculus, UniProt P27467). In words: antagonism of Wnt3a pathway luciferase reporter – Wnt-LIGHT cells, luminescence, selectivity assay for Gli-SUFU antagonist project, dose response (AID 651570).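 Further: Wnt-LIGHT reporter cells stimulated with conditioned medium from Wnt3a-producing cells.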 The class given is functional. The settings on record: read-out: IC50_Mean.
Chain of Protein Wnt-3a (P27467 whole entry): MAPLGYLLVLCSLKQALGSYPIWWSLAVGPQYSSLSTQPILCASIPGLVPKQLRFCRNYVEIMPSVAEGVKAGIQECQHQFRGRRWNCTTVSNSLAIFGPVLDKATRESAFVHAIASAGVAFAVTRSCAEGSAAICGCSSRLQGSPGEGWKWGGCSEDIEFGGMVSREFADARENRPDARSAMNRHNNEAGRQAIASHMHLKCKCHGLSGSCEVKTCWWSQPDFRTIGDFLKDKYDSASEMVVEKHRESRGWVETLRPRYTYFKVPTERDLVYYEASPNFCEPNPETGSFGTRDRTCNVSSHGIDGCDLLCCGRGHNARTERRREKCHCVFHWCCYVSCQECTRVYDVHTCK
Another assay addresses Cytochrome P450 3A4 (Homo sapiens, UniProt P08684).
Assay [18] can be described thus: viability of uninfected HEp-2 cells – cell-based, HTS, cytotoxicity control for RSV inhibitor project, dose response (AID 2410). The settings on record: human respiratory syncytial virus. The class given is functional.

Chain of Cytochrome P450 3A4 (P08684 whole entry): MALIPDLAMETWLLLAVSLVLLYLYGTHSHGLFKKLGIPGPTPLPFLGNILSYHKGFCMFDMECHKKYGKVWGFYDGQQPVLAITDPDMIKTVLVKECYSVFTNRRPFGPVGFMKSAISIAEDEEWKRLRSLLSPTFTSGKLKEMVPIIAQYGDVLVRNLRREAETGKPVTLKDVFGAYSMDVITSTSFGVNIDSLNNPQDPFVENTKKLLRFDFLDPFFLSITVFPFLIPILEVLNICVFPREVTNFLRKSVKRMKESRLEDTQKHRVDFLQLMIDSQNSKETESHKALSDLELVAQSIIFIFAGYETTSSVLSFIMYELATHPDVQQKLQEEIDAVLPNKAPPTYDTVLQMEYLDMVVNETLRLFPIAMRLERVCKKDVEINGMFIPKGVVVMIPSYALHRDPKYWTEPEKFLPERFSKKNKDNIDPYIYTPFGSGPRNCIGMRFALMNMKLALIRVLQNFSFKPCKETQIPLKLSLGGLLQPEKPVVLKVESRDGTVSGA

As to `N#Cc1ccccc1NC(=O)CN1C(=O)NC(Cc2c[nH]c3ccccc23)C1=O` (stereo not drawn), the EC50 (in general, the concentration that produces a half-maximal response) in [1] was > 104 µM (inactive).
Regarding `CN1CCN(C(c2ccc(Cl)cc2)c2cc(Cl)c3cccnc3c2O)CC1` (stereo not drawn), the EC50 was > 260 µM (inconclusive) in [2], 3.8 µM (active) with Streptococcus, 2.42 µM (active) at Protein RecA and 1.92 µM (active) in assay [5]. The AC50 – broadly, the midpoint of the concentration-response curve, whichever way the signal moves – in assay [3] was 0.77 µM (active); in assay [7], > 380 µM (inactive). The IC50 is 56.4 µM (active) in [4], 75.6 µM (active) at Prothrombin and 14.8 µM (active) in assay [6].
Consider `Cn1c(=O)c2cc(S(=O)(=O)NC(C(=O)Nc3cccc(F)c3)c3ccccc3)ccc2n(C)c1=O` (stereo not drawn), for which the IC50 in assay [4] was 92.8 µM (active); on Prothrombin, > 100 µM (inactive); in [6], > 100 µM (inactive).
In the case of `COc1cc(NC(=O)c2cc3c(C)nc4ccccc4c3o2)cc(OC)c1OC`, the IC50 in assay [8] is 62.8 µM (inactive); with H9c2 it was > 79 µM (inactive).
For the molecule `COc1ccc(-n2nc3c(N4CCC(C(=O)NCc5ccco5)CC4)nnc(C)c3c2C)cc1`, the results for the EC50 in [9], in assay [10] and in assay [12] were > 120 µM (not active), 20.3 µM (active) and > 120 µM (not active), respectively. The IC50 in assay [11] was 61.1 µM (inactive).
For `Cc1cccnc1CN1CCN(C(=O)c2cc(COc3ccc4ncccc4c3)on2)CC1`, the AC50 was 2.78 µM (active) in assay [13], 3.77 µM (active) with INS1, 7.57 µM (active) in [16] and 2.1 µM (active) in assay [17]. The EC50 in [14] and in assay [15] was > 112 µM (not active) in each case. Further, the IC50 on Protein Wnt-3a was 1.62 µM (active).
Regarding `COc1nnc(-c2ccc(N3CCCCC3)c(N)c2)c2ccccc12`, the IC50 at Protein Wnt-3a is 25.8 µM (inactive).
Consider `CC12C=CC(=O)CC1CCC1C2CCC2(C)C(O)C(O)CC12` (stereo not drawn), for which, in the assay on H9c2, the IC50 is > 79 µM (inactive).
Take `Cc1ccc2c(c1)nc1c3ccccc3nc(-c3ccccc3N)n21`: in the assay on H9c2, the IC50 was > 79 µM (inactive).
On to `COc1ccc(-c2nn(-c3ccccc3)cc2/C=N/NC(=O)c2ccc(Br)o2)cc1`, for which, at Cytochrome P450 3A4, the AC50 was 15.8 µM (inconclusive). The CC50 (in general, the concentration at which the toxic effect on the cells reaches its halfway point) in [18] was 18.8 µM (active). Also, on Protein Wnt-3a, the IC50 is 7.01 µM (active).
For `COc1ccc(/C=N/NC(=O)c2ccc(COc3cccc4cccnc34)cc2)cc1OC`, the IC50 in the assay with H9c2 was > 79 µM (inactive).

The values above are taken from ChEMBL document CHEMBL1201862, “PubChem BioAssay data set” (2004).
